# According to US20110218506A1, “AMOROLFINE PATCH FOR THE TREATMENT OF ONYCHOMYCOSIS” (Galderma Research & Development, priority 2004, published 2011):
# Structures can show the parent of a compound that is named as a salt.
# Test: Solubility in formulation solvents
# Format: physicochemical
Compound,solubility in ethyl acetate (ethyl acetate),solubility in ethanol (ethanol)
O=C1CCCCCCCCCCCCCCO1 [Exaltolide],highly soluble,–
"CCC(C)(C)c1ccc(CC(C)CN2C[C@@H](C)O[C@@H](C)C2)cc1 (stereo partly drawn) [amorolfine HCl, hydrochloride of the cis-4-[3-[4-(1,1-dimethyl-propyl)phenyl]-2-methylpropyl]-2,6-dimethyl-morpholine]",–,particularly soluble
